Assay results from patent US8183387B2, “Phenylpyrazole derivatives” (Taisho Pharmaceutical Co., Ltd, priority 2007, dated 2012).

Columns and labels:
[1] = tested on: CHL/IU cells; assay: Cytotoxicity test; format: cell-based, Chinese hamster; details: 48 hours culture, Cell counting kit-8
Procedure: Chinese hamster lung fibroblast-derived CHL/IU cells (DS Pharma Biomedical Co., Ltd., Japan) were seeded, and the medium was replaced on the following day by another medium (MEM+2 mM L-Glutamine+10% CS (all purchased from Invitrogen)) containing a test compound at various concentrations, followed by culture for an additional 48 hours. Using a Cell counting kit-8 (Dojindo Laboratories, Japan), the survival rate of the cells was determined to obtain a curve whose horizontal axis represents the test compound concentration and whose vertical axis represents the survival rate. The curve thus obtained was used to determine the concentration of the test compound at which the survival rate was 50%. As a result, this concentration was 275, 441 and >640 mmol/L for the compounds of Examples 56, 62 and 70, respectively.

[2] = molecular target: T1, human H3 receptor (Homo sapiens, UniProt Q9Y5N1); assay: H3 receptor binding test (R(−)-α-methyl[3H]histamine); set-up: purchased Euroscreen ES-392-M; host or cells: CHO-K1; details: inhibition of R(−)-α-methyl[3H]histamine (2 nM) binding, membrane of human H3 receptor-expressing CHO-K1 cells
Procedure: A membrane preparation of human H3 receptor-expressing CHO-K1 cells (Euroscreen, ES-392-M, 15 μg protein/200 μl), R(−)-α-methyl[^3H]histamine (Amersham, TRK-1017, specific activity: 1.74 TBq/mmol, 2 nM) and a test drug were reacted at room temperature for 1 hour. After completion of the reaction, the reaction mixture was subjected to suction filtration through a 0.3% polyethyleneimine-treated glass filter (GF/C). The glass filter was washed five times with 50 mM Tris-HCl washing solution (pH 7.4) containing 5 mM EDTA. After washing, the glass filter was dried and a scintillator was added thereto, followed by measurement of radioactivity on the filter using a liquid scintillation counter.
A fixed concentration (2 nM) of R(−)-α-methyl[^3H]histamine was reacted under the above conditions with each test drug at various concentrations to obtain an inhibition curve.

[3] = molecular target: T1, human H3 receptor; assay: [35S]GTP-γ-S binding test
Procedure: After completion of the reaction, [^35S]GTP-γ-S (0.2 nM) was added and reacted for an additional 30 minutes. After completion of the reaction, the reaction mixture was subjected to suction filtration through a glass filter (GF/C). The glass filter was washed three times with 20 mM HEPES washing solution (pH 7.4) containing 100 mM sodium chloride and 1 mM magnesium chloride. After washing, the glass filter was dried and a scintillator was added thereto, followed by measurement of radioactivity on the filter using a liquid scintillation counter.
Binding of [^35S]GTP-γ-S in the absence of R(−)-α-methylhistamine was defined as non-specific binding, and the difference between total binding in the presence of R(−)-α-methylhistamine and non-specific binding was defined as specific binding of [^35S]GTP-γ-S. Fixed concentrations of [^35S]GTP-γ-S (0.2 nM) and R(−)-α-methylhistamine (100 μM) were reacted under the above conditions with each test drug at various concentrations to obtain an inhibition curve.

[4] = molecular target: T2, σ1 receptor (Homo sapiens, UniProt Q99720); assay: [3H](+)pentazocine binding test; details: [3H](+)pentazocine 8 nM, Jurkat cell membrane
T2 construct: host or cells: Jurkat cells (membrane)
Procedure: Affinity for σ1 receptor was evaluated in a [^3H](+)pentazocine binding test by Cerep, Inc. The σ1 receptor preparation used was the membrane of Jurkat cells. The Jurkat cell membrane was incubated with [^3H](+)pentazocine (8 nM) at 22° C. for 120 minutes.

T1 sequence (Q9Y5N1 whole entry): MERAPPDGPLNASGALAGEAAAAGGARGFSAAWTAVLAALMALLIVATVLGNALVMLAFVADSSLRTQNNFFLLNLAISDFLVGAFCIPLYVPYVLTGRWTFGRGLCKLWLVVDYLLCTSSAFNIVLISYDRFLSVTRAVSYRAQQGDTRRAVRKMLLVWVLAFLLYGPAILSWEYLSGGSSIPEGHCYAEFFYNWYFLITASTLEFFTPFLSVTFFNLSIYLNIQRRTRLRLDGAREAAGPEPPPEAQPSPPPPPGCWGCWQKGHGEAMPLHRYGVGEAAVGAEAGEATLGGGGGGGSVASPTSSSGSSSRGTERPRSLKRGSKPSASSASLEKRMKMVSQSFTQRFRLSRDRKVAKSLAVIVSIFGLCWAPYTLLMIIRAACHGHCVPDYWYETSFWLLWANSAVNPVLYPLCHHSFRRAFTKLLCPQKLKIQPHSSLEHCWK
T2 sequence (Q99720 whole entry): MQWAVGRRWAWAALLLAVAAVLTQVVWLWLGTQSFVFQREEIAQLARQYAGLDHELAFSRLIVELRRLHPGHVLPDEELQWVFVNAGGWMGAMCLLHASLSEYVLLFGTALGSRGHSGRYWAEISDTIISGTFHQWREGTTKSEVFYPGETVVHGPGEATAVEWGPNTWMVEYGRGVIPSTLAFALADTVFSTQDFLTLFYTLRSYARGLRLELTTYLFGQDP

| Structure (SMILES) | IC50 [2] [nM] | other results |
| --- | --- | --- |
| C[C@@H]1CCCN1CCCOc1ccc(-n2cc(C(=O)N3CCCC3)cn2)cc1 [Example 56, [1-(4-{3-[(2R)-2-methylpyrrolidin-1-yl]propoxy}phenyl)-1H-pyrazol-4-yl](pyrrolidin-1-yl)methanone] | 2.8 | concentration of the test compound at which the survival rate was 50% [1]: 275000 µM |
| C[C@@H]1CCCN1CCCOc1ccc(-n2cc(N3CCCC3=O)cn2)cc1 [Example 30, 1-[1-(4-{3-[(2R)-2-methylpyrrolidin-1-yl]propoxy}phenyl)-1H-pyrazol-4-yl]pyrrolidine-2-one] | 3.3 | IC50 [3]: 1.7 nM |
| C[C@@H]1CCCN1CCCOc1ccc(-n2cc(C(=O)N3CCCOCC3)cn2)cc1 [Example 54, [1-(4-{3-[(2R)-2-methylpyrrolidin-1-yl]propoxy}phenyl)-1H-pyrazol-4-yl](1,4-oxazepan-4-yl)methanone] | 4.1 | inhibition at 10 µM [4]: 39% |
| C[C@@H]1CCCN1CCCCOc1ccc(-n2cc(C(=O)N3CCOCC3)cn2)cc1 [Example 61, [1-(4-{4-[(2R)-2-methylpyrrolidin-1-yl]butoxy}phenyl)-1H-pyrazol-4-yl](morpholin-4-yl)methanone] | 39.2 |  |
| C[C@@H]1CCCN1CCCOc1ccc(-n2cc([N+](=O)[O-])cn2)cc1 [Example 28, 1-(4-{3-[(2R)-2-methylpyrrolidin-1-yl]propoxy}phenyl)-4-nitro-1H-pyrazole] | 3.1 |  |
| C[C@@H]1CCCN1CCCOc1ccc(-n2cc(C(=O)c3ccncc3)cn2)cc1 [Example 26, [1-(4-{3-[(2R)-2-methylpyrrolidin-1-yl]propoxy}phenyl)-1H-pyrazol-4-yl](pyridin-4-yl)methanone] | 2.6 |  |
| CC1CCCN1CCCOc1ccc(-n2cc(N3C(=O)CCC3=O)cn2)cc1 (stereo not drawn) [Example 52, 1-(1-{4-[3-(2-methylpyrrolidin-1-yl)propoxy]phenyl}-1H-pyrazol-4-yl)pyrrolidine-2,5-dione] | 6 |  |
| C[C@@H]1CCCN1CCCOc1ccc(-n2cc(NC(=O)c3ccc(O)cc3)cn2)cc1 [Example 42, 4-hydroxy-N-[1-(4-{3-[(2R)-2-methylpyrrolidin-1-yl]propoxy}phenyl)-1H-pyrazol-4-yl]benzamide] | 1.7 |  |
| CC1CCCN1CCCOc1ccc(-n2cc(C(=O)NC(C)(C)C)cn2)cc1 (stereo not drawn) [Example 11, N-tert-butyl-1-{4-[3-(2-methylpyrrolidin-1-yl)propoxy]phenyl}-1H-pyrazole-4-carboxamide] | 1.8 |  |
| C[C@@H]1CCCN1CCCOc1ccc(-n2cc(C(=O)N3CCN(C)CC3)cn2)cc1 [Example 55, (4-methylpiperazin-1-yl)[1-(4-{3-[(2R)-2-methylpyrrolidin-1-yl]propoxy}phenyl)-1H-pyrazol-4-yl]methanone] | 5.2 | inhibition at 10 µM [4]: 3% |
| C[C@@H]1CCCN1CCCOc1ccc(-n2cc(NS(=O)(=O)c3cccnc3)cn2)cc1 [Example 51, N-[1-(4-{3-[(2R)-2-methylpyrrolidin-1-yl]propoxy}phenyl)-1H-pyrazol-4-yl]pyridine-3-sulfonamide] | 13.7 |  |
| CC1(C)CCCN1CCCOc1ccc(-n2cc(C(=O)N3CCOCC3)cn2)cc1 [Example 10, 4-[(1-{4-[3-(2,2-dimethylpyrrolidin-1-yl)propoxy]phenyl}-1H-pyrazol-4-yl)carbonyl]morpholine] | 49.4 |  |
| CC1CCCN1CCCOc1ccc(-n2cc(C(=O)c3ccccn3)cn2)cc1 (stereo not drawn) [Example 25, (1-{4-[3-(2-methylpyrrolidin-1-yl)propoxy]phenyl}-1H-pyrazol-4-yl)(pyridin-2-yl)methanone] | 3.5 |  |
| C[C@@H]1CCCN1CCOc1ccc(-n2cc(C(=O)N3CCOCC3)cn2)cc1 [Example 60, [1-(4-{2-[(2R)-2-methylpyrrolidin-1-yl]ethoxy}phenyl)-1H-pyrazol-4-yl](morpholin-4-yl)methanone] | 1560 |  |
| C[C@@H]1CCCN1CCCOc1ccc(-n2cc(NS(C)(=O)=O)cn2)cc1 [Example 48, N-[1-(4-{3-[(2R)-2-methylpyrrolidin-1-yl]propoxy}phenyl)-1H-pyrazol-4-yl]methanesulfonamide] | 4.1 |  |
| C[C@@H]1CCCN1CCCOc1ccc(-n2cc(C(=O)NCCOCCO)cn2)cc1 [Example 69, N-[2-(2-hydroxyethoxy)ethyl]-1-{4-[3-(2-methylpyrrolidin-1-yl)propoxy]phenyl}-1H-pyrazole-4-carboxamide] | 4.6 |  |
| Cc1ccc(NC(=O)c2cnn(-c3ccc(OCCCN4CCCC4C)cc3)c2)cc1 (stereo not drawn) [Example 17, N-(4-methylphenyl)-1-{4-[3-(2-methylpyrrolidin-1-yl)propoxy]phenyl}-1H-pyrazole-4-carboxamide] | 3.9 |  |
| C[C@@H]1CCCN1CCCOc1ccc(-n2cc(NC(=O)c3cccnc3)cn2)cc1 [Example 43, N-[1-(4-{3-[(2R)-2-methylpyrrolidin-1-yl]propoxy}phenyl)-1H-pyrazol-4-yl]pyridine-3-carboxamide] | 1 |  |
| CC1CCC(C)N1CCCOc1ccc(-n2cc(C(=O)NC(C)(C)C)cn2)cc1 (stereo not drawn) [Example 12, N-tert-butyl-1-{4-[3-(2,5-dimethylpyrrolidin-1-yl)propoxy]phenyl}-1H-pyrazole-4-carboxamide] | 19.3 |  |
| C[C@@H]1CCCN1CCCOc1ccc(-n2cc(C(=O)N3CCC(F)(F)C3)cn2)cc1 [Example 22, 4-[(3,3-difluoropyrrolidin-1-yl)carbonyl]-1-(4-{3-[(2R)-2-methylpyrrolidin-1-yl]propoxy}phenyl)-1H-pyrazole] | 2.7 |  |
| CC1CCCN1CCCOc1ccc(-n2cc(N3CCCCC3=O)cn2)cc1 (stereo not drawn) [Example 36, 1-(1-{4-[3-(2-methylpyrrolidin-1-yl)propoxy]phenyl}-1H-pyrazol-4-yl)piperidin-2-one] | 4 |  |
| CC1CCCN1CCCOc1ccc(-n2cc(C(=O)N(C)C)cn2)cc1 (stereo not drawn) [Example 19, 1-{4-[3-(2-methylpyrrolidin-1-yl)-propoxy]-phenyl}-1H-pyrazole-4-carboxylic acid dimethylamide] | 5.1 |  |
| C[C@@H]1CCCN1CCCOc1ccc(-n2cc(C#N)cn2)cc1 [Example 3, 1-(4-{3-[(2R)-2-methylpyrrolidin-1-yl]propoxy}phenyl)-1H-pyrazole-4-carbonitrile] | 4.6 |  |
| O=C(c1cnn(-c2ccc(OCCCN3CCCCC3)cc2)c1)N1CCOCC1 [Example 9, 4-({1-[4-(3-piperidin-1-ylpropoxy)phenyl]-1H-pyrazol-4-yl}carbonyl)morpholine] | 8.5 |  |
| C[C@@H]1CCCN1CCCOc1ccc(-n2cc(C(=O)N3CCOCC3)cn2)cc1F [Example 62, [1-(3-fluoro-4-{3-[(2R)-2-methylpyrrolidin-1-yl]propoxy}phenyl)-1H-pyrazol-4-yl](morpholin-4-yl)methanone] | 8.7 | concentration of the test compound at which the survival rate was 50% [1]: 441000 µM |
